Experimental data as given in PMC9668304 (2022).

What was measured:
[1] = tested on: aminoglycoside aptamer (tobramycin-binding aptamer) (DNA, aptamer) GGGACTTGGTTTAGGTAATGAGTCCC; assay: square-wave pulsed OECT (aptamer on gate), 70 Hz; conditions: 137 mM NaCl, 2.7 mM KCl; 1x PBS, ambient temperature; saturable Langmuir-Hill isotherm, reversible; immobilised aptamer
[2] = tested on: aminoglycoside aptamer (tobramycin-binding aptamer) (DNA, aptamer) GGGACTTGGTTTAGGTAATGAGTCCC; assay: three-electrode square-wave voltammetry, 240 Hz; conditions: 137 mM NaCl, 2.7 mM KCl; 1x PBS, ambient temperature; saturable Langmuir-Hill isotherm, reversible; immobilised aptamer

`NC[C@H]1O[C@H](O[C@H]2[C@H](O)[C@@H](O[C@H]3O[C@H](CO)[C@@H](O)[C@H](N)[C@H]3O)[C@H](N)C[C@@H]2N)[C@H](N)C[C@@H]1O` was tested, and the binding [1] was “yes” and the binding [2] was “yes”.
